Data published in US20170349593A1, “BTK INHIBITORS” (MERCK SHARP & DOHME CORP., priority 2014, published 2017).

How the values were obtained:
[1] = biological target: T1, BTK enzyme (recombinant full-length BTK, hBTK) (Homo sapiens, UniProt Q06187); experiment: Btk enzyme activity assay (LANCE TR-FRET); format: biochemical; conditions: 50 pM hBTK, 25 μM ATP, 60 minute compound and enzyme incubation, concentration range 1 μM to 0.017 nM, read-out: BTK binding IC50
T1 construct: recombinant protein from baculovirus-transfected S 19 cells: full-length BTK, 6 HIS-tag cleaved; 6 HIS-tag (cleaved yes); made in house

[2] = test system: adenosine uptake into HeLa cells; experiment: [3H]Adenosine uptake assay; format: cell-based; conditions: Homo sapiens; accumulation of [3H]adenosine into HeLa cells; concentration range 10 μM to 0.032 nM; read-out: ADU inhibition IC50
Description: Compounds are also screened in an adenosine uptake functional cellular assay using the protocol described below:
Adenosine uptake activity was determined by monitoring the accumulation of tritiated adenosine into HeLa cells (ATCC catalog #CCL-2) using a PMT-based radiometric detection instrument. In this assay, the potency (IC50) of each compound was determined from a ten point (1:3 serial dilution; final compound concentration range in assay from 10 μM to 0.032 nM) titration curve using the following outlined procedure. To each well of a 96-well CytoStar-T scintillating microplate (Perkin Elmer Catalog #RPNQ0163), 25 000 HeLa cells in 100 μL of growth medium comprising: Minimum Essential Media (Life Technologies Catalog #11095-080)+10% (v/v) foetal bovine serum (FBS; Sigma Aldrich Catalog #F2442) was added. These cells were incubated overnight at 37° C. in a humidified atmosphere with 5% (v/v) CO2. After this time the growth medium was removed and replaced with 40 μL assay medium comprising: Hanks balanced salts solution (HBSS; Thermo Fisher Catalog # SH30268.01)+5% (v/v) FBS. Compound stock solutions in DMSO were diluted in assay medium to 2.5× final compound concentration maintaining a constant DMSO concentration of 0.25% (v/v). 40 μL of compound in assay medium was dispensed into individual wells of the Cytostar-T plates and the plates were incubated for 30 minutes under ambient laboratory conditions. Following this incubation, 20 μL of 500 nM [^3H] adenosine (American Radiolabeled Chemicals Inc. Catalog #ART0287) in assay medium was added and incubated for a further 60 minutes under ambient laboratory conditions. The amount of radiolabel accumulation was then determined using a Perkin Elmer Topcount NXT microplate reader. In brief, HeLa cells adhere to the bottom of the Cytostar-T plate, uptake of [^3H]adenosine into these cells brings the radiolabel into sufficient proximity to excite the scintillant in the base of the plates. These events are captured by single PMT, time-resolved coincidence counting. IC50 values were determined by 4 parameter robust fit of counts per second values vs. (Log10)) compound concentrations.

T1 sequence (Q06187 whole entry): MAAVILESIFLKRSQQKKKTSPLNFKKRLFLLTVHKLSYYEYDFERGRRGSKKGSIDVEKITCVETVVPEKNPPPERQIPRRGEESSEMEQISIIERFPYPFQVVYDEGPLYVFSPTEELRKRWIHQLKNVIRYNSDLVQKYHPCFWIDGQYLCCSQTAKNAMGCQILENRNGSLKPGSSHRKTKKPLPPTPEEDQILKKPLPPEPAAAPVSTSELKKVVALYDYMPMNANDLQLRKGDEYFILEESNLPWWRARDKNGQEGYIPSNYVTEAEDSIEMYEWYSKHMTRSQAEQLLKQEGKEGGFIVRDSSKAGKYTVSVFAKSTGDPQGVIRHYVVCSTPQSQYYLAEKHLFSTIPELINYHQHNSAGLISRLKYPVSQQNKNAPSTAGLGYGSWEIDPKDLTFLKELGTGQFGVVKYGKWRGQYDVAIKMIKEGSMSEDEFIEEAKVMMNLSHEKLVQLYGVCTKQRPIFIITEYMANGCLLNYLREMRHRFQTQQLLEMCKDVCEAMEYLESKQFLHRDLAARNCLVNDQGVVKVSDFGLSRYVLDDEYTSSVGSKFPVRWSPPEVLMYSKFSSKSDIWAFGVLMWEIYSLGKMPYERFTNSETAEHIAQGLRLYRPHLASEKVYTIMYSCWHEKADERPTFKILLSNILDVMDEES

| Compound | IC50 [1] [nM] | IC50 [2] [nM] |
| --- | --- | --- |
| COc1cc(C(=O)Nc2cc(C(F)(F)F)ccn2)ccc1-c1nc([C@H]2CN(C(=O)C3CN(C(=O)C4CC4)C3)[C@@H](C)CO2)n2ccnc(N)c12 [Example 34, 4-{8-amino-3-[(2R,5S)-4-{[1-(cyclopropylcarbonyl)azetidin-3-yl]carbonyl}-5-methylmorpholin-2-yl]imidazo[1,5-a]pyrazin-1-yl}-3-methoxy-N-[4-(trifluoromethyl)pyridin-2-yl]benzamide] | 2.65 | ≥ 10000 |
| COc1cc(C(=O)Nc2cc(C(F)(F)F)ccn2)ccc1-c1nc([C@H]2CN(C(=O)C3CN(Cc4c(F)cccc4F)C3)[C@@H](C)CO2)n2ccnc(N)c12 [Example 35, 4-{8-amino-3-[(2R,5S)-4-{[1-(2,6-difluorobenzyl)azetidin-3-yl]carbonyl}-5-methylmorpholin-2-yl]imidazo[1,5-a]pyrazin-1-yl}-3-methoxy-N-[4-(trifluoromethyl)pyridin-2-yl]benzamide] | 3.21 | 747 |
| COc1cc(C(=O)Nc2cc(C(F)(F)F)ccn2)ccc1-c1nc([C@H]2CN(C=O)[C@@H](C)CO2)n2ccnc(N)c12 [Example 36, 4-{8-amino-3-[(2R,5S)-4-formyl-5-methylmorpholin-2-yl]imidazo[1,5-a]pyrazin-1-yl}-3-methoxy-N-[4-(trifluoromethyl)pyridin-2-yl]benzamide] | 9.31 | 1680 |
| COc1cc(C(=O)Nc2cc(C(F)(F)F)ccn2)ccc1-c1nc([C@H]2CN(C(=O)C3CN(Cc4ccccc4F)C3)[C@@H](C)CO2)n2ccnc(N)c12 [Example 37, 4-{8-amino-3-[(2R,5S)-4-{[1-(2-fluorobenzyl)azetidin-3-yl]carbonyl}-5-methylmorpholin-2-yl]imidazo[1,5-a]pyrazin-1-yl}-3-methoxy-N-[4-(trifluoromethyl)pyridin-2-yl]benzamide] | 2.77 | 702 |
| COc1cc(C(=O)Nc2cc(C(F)(F)F)ccn2)ccc1-c1nc([C@H]2CN(C(=O)[C@H](C)O)[C@@H](C)CO2)n2c(Cl)cnc(N)c12 [Example 38, 4-(8-amino-5-chloro-3-{(2R,5S)-4-[(2S)-2-hydroxypropanoyl]-5-methylmorpholin-2-yl}imidazo[1,5-a]pyrazin-1-yl)-3-methoxy-N-[4-(trifluoromethyl)pyridin-2-yl]benzamide] | 2.25 | 2800 |
| CCOc1cc(C(=O)Nc2cc(C(F)(F)F)n(C)n2)ccc1-c1nc([C@H]2CN(C3CCOCC3)[C@@H](C)CO2)n2ccnc(N)c12 [Example 39, 4-{8-amino-3-[(2R,5S)-5-methyl-4-(tetrahydro-2H-pyran-4-yl)morpholin-2-yl]imidazo[1,5-a]pyrazin-1-yl}-3-ethoxy-N-[1-methyl-5-(trifluoromethyl)-1H-pyrazol-3-yl]benzamide] | 5.87 | 3800 |
| CCOc1cc(C(=O)Nc2cc(C(F)(F)F)n(C)n2)ccc1-c1nc([C@H]2CN(C3CCOCC3)[C@@H](C)CO2)n2c(Cl)cnc(N)c12 [Example 40, 4-{8-amino-5-chloro-3-[(2R,5S)-5-methyl-4-(tetrahydro-2H-pyran-4-yl)morpholin-2-yl]imidazo[1,5-a]pyrazin-1-yl}-3-ethoxy-N-[1-methyl-5-(trifluoromethyl)-1H-pyrazol-3-yl]benzamide] | 5.87 | 4620 |
| C[C@H]1CO[C@@H](c2nc(-c3ccc(C(=O)Nc4cc(C(F)(F)F)ccn4)cc3F)c3c(N)ncc(Cl)n23)CN1C(=O)C1CC1 [Example 41, 4-{8-amino-5-chloro-3-[(2R,5S)-4-(cyclopropylcarbonyl)-5-methylmorpholin-2-yl]imidazo[1,5-a]pyrazin-1-yl}-3-fluoro-N-[4-(trifluoromethyl)pyridin-2-yl]benzamide] | 0.626 | 383 |
| C[C@H](O)C(=O)N1C[C@H](c2nc(-c3ccc(C(=O)Nc4cc(C(F)(F)F)ccn4)cc3F)c3c(N)ncc(Cl)n23)OC[C@@H]1C [Example 42, 4-(8-amino-5-chloro-3-{(2R,5S)-4-[(2S)-2-hydroxypropanoyl]-5-methylmorpholin-2-yl}imidazo[1,5-a]pyrazin-1-yl)-3-fluoro-N-[4-(trifluoromethyl)pyridin-2-yl]benzamide] | 0.4 | 364 |
| C[C@H]1CO[C@@H](c2nc(-c3ccc(C(=O)Nc4cc(C(F)(F)F)ccn4)cc3)c3c(N)ncc(Cl)n23)CN1C(=O)C1CC1 [Example 43, 4-{8-amino-5-chloro-3-[(2R,5S)-4-(cyclopropylcarbonyl)-5-methylmorpholin-2-yl]imidazo[1,5-a]pyrazin-1-yl}-N-[4-(trifluoromethyl)pyridin-2-yl]benzamide] | 0.784 | 562 |
| C[C@H]1CO[C@@H](c2nc(-c3ccc(C(=O)Nc4cc(C5CC5)ccn4)cc3F)c3c(N)ncc(Cl)n23)CN1C1CCOCC1 [Example 44, 4-{8-amino-5-chloro-3-[(2R,5S)-5-methyl-4-(tetrahydro-2H-pyran-4-yl)morpholin-2-yl]imidazo[1,5-a]pyrazin-1-yl}-N-(4-cyclopropylpyridin-2-yl)-3-fluorobenzamide] | 0.358 | 362 |
| C[C@H](O)C(=O)N1C[C@H](c2nc(-c3ccc(C(=O)Nc4cc(C(F)(F)F)ccn4)cc3)c3c(N)ncc(Cl)n23)OC[C@@H]1C [Example 45, 4-(8-amino-5-chloro-3-{(2R,5S)-4-[(2S)-2-hydroxypropanoyl]-5-methylmorpholin-2-yl}imidazo[1,5-a]pyrazin-1-yl)-N-[4-(trifluoromethyl)pyridin-2-yl]benzamide] | 0.68 | 512 |
| COc1cc(C(=O)Nc2cc(C(F)(F)F)ccn2)ccc1-c1nc([C@H]2CN(C3CCOCC3)[C@@H](C)CO2)n2c(Cl)cnc(N)c12 [Example 46, 4-{8-amino-5-chloro-3-[(2R,5S)-5-methyl-4-(tetrahydro-2H-pyran-4-yl)morpholin-2-yl]imidazo[1,5-a]pyrazin-1-yl}-3-methoxy-N-[4-(trifluoromethyl)pyridin-2-yl]benzamide] | 1.94 | 2160 |
| COc1cc(C(=O)Nc2cc(C(F)(F)F)ccn2)ccc1-c1nc([C@H]2CN(C(=O)C3CC3)[C@@H](C)CO2)n2c(Cl)cnc(N)c12 [Example 47, 4-{8-amino-5-chloro-3-[(2R,5S)-4-(cyclopropylcarbonyl)-5-methylmorpholin-2-yl]imidazo[1,5-a]pyrazin-1-yl}-3-methoxy-N-[4-(trifluoromethyl)pyridin-2-yl]benzamide] | 5.59 | 6090 |
| C[C@H]1CO[C@@H](c2nc(-c3ccc(C(=O)Nc4cc(C(F)(F)F)ccn4)cc3F)c3c(N)ncc(Cl)n23)CN1C1CCOCC1 [Example 48, 4-{8-amino-5-chloro-3-[(2R,5S)-5-methyl-4-(tetrahydro-2H-pyran-4-yl)morpholin-2-yl]imidazo[1,5-a]pyrazin-1-yl}-3-fluoro-N-[4-(trifluoromethyl)pyridin-2-yl]benzamide] | 0.303 | 397 |
| COc1cc(C(=O)Nc2cc(C(F)(F)F)ccn2)ccc1-c1nc([C@H]2CN(C(=O)C3CCOCC3)[C@@H](C)CO2)n2ccnc(N)c12 [Example 49, 4-{8-amino-3-[(2R,5S)-5-methyl-4-(tetrahydro-2H-pyran-4-ylcarbonyl)morpholin-2-yl]imidazo[1,5-a]pyrazin-1-yl}-3-methoxy-N-[4-(trifluoromethyl)pyridin-2-yl]benzamide] | 1.74 | 1780 |
| COCCC(=O)N1C[C@H](c2nc(-c3ccc(C(=O)Nc4cc(C(F)(F)F)ccn4)cc3OC)c3c(N)nccn23)OC[C@@H]1C [Example 50, 4-{8-amino-3-[(2R,5S)-4-(3-methoxypropanoyl)-5-methylmorpholin-2-yl]imidazo[1,5-a]pyrazin-1-yl}-3-methoxy-N-[4-(trifluoromethyl)pyridin-2-yl]benzamide] | 2.17 | 2260 |
| COc1cc(C(=O)Nc2cc(C(F)(F)F)ccn2)ccc1-c1nc([C@H]2CN(C(=O)[C@H](C)OC)[C@@H](C)CO2)n2ccnc(N)c12 [Example 51, 4-(8-amino-3-{(2R,5S)-4-[(2S)-2-methoxypropanoyl]-5-methylmorpholin-2-yl}imidazo[1,5-a]pyrazin-1-yl)-3-methoxy-N-[4-(trifluoromethyl)pyridin-2-yl]benzamide] | 4.31 | 1410 |
| COc1cc(C(=O)Nc2cc(C(F)(F)F)ccn2)ccc1-c1nc([C@H]2CN(C(=O)[C@H](C)O)[C@@H](C)CO2)n2ccnc(N)c12 [Example 52, 4-(8-amino-3-{(2R,5S)-4-[(2S)-2-hydroxypropanoyl]-5-methylmorpholin-2-yl}imidazo[1,5-a]pyrazin-1-yl)-3-methoxy-N-[4-(trifluoromethyl)pyridin-2-yl]benzamide] | 2.26 | 1990 |
